Measurements taken from the supplement of paper PMC10307832.

Legend:
Test in all cases: relative viability (nuclei count vs DMSO), 5 days (fraction); higher = more cells survive
[1] = compound: C1/C(=C\C2=CC=CS2)/C(=O)/C(=C/C3=CC=CS3)/C1 + Cc1nc(Nc2ncc(C(=O)Nc3c(C)cccc3Cl)s2)cc(N2CCN(CCO)CC2)n1 [Dasatinib] (partner 0.075 µM)
Outline: (§1)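 Lung cancer cell lines, seeded in 1536-well plates, were treated the following day by pin tool with a single drug or with five library-drug doses (not always all listed) in √10 steps on top of a fixed anchor-drug dose. Cells were fixed and nuclei stained in one step after 5 days, and nuclei were counted. Relative viability is the nuclei count for treated wells divided by that for vehicle wells, reported as medians of duplicate plates.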

[2] = compound: C1=CC(=CC=C1C2=CC(=C(S2)NC(=O)N)C(=O)N)F [TPCA-1] + CC(=O)c1c(C)c2cnc(Nc3ccc(N4CCNCC4)cn3)nc2n(C2CCCC2)c1=O [Palbociclib] (partner 0.5 µM)
Outline: as §1

[3] = compound: C1=CC(=CC=C1C2=CC(=C(S2)NC(=O)N)C(=O)N)F [TPCA-1] + CC1(C)CCC(c2ccc(Cl)cc2)=C(CN2CCN(c3ccc(C(=O)NS(=O)(=O)c4ccc(N[C@H](CCN5CCOCC5)CSc5ccccc5)c(S(=O)(=O)C(F)(F)F)c4)cc3)CC2)C1 [Navitoclax] (partner 0.5 µM)
Outline: as §1

[4] = compound: C[C@]12O[C@H](C[C@]1(O)CO)n1c3ccccc3c3c4c(c5c6ccccc6n2c5c31)CNC4=O [Lestaurtinib] + NC(=O)Nc1cc(-c2cccc(F)c2)sc1C(=O)N[C@H]1CCCNC1 [AZD7762] (partner 0.2 µM)
Outline: as §1

Row | Cell Line | relative viability ([1]; first compound 0.2 µM) | relative viability ([1]; first compound 0.6325 µM) | relative viability ([1]; first compound 2 µM) | relative viability ([1]; first compound 6.325 µM) | relative viability ([1]; first compound 20 µM) | relative viability ([2]; first compound 0.04 µM) | relative viability ([2]; first compound 0.1265 µM) | relative viability ([2]; first compound 0.4 µM) | relative viability ([2]; first compound 1.265 µM) | relative viability ([2]; first compound 4 µM) | relative viability ([3]; first compound 0.04 µM) | relative viability ([3]; first compound 0.1265 µM) | relative viability ([3]; first compound 0.4 µM) | relative viability ([3]; first compound 1.265 µM) | relative viability ([3]; first compound 4 µM) | relative viability ([4]; first compound 0.005 µM) | relative viability ([4]; first compound 0.01581 µM) | relative viability ([4]; first compound 0.05 µM) | relative viability ([4]; first compound 0.1581 µM) | relative viability ([4]; first compound 0.5 µM)
1 | 201T | 0.633 | 0.523 | 0.529 | 0.493 | 0.612 | 0.376 | 0.362 | 0.385 | 0.386 | 0.363 | 1.2 | 1.17 | 1.19 | 1.2 | 1.25 | 0.589 | 0.656 | 0.53 | 0.92 | 0.776
2 | A549 | – | – | – | – | – | – | – | – | – | – | 1.29 | 1.2 | 1.17 | 1.29 | 0.777 | – | – | – | – | –
3 | A-427 | 0.841 | 0.721 | 0.644 | 0.722 | 0.708 | 0.555 | 0.507 | 0.545 | 0.561 | 0.553 | 0.945 | 0.898 | 0.997 | 0.899 | 0.93 | 0.712 | 0.755 | 0.645 | 0.433 | 0.215
4 | ABC-1 | 0.648 | 0.576 | 0.626 | 0.7 | 0.701 | 0.967 | 0.589 | 0.584 | 0.612 | 0.754 | – | – | – | – | – | 0.59 | 1.09 | 0.692 | 0.76 | 0.593
5 | BEN | 0.325 | 0.38 | 0.316 | 0.35 | 0.298 | 0.474 | 0.468 | 0.531 | 0.577 | 0.422 | 0.0874 | 0.0533 | 0.0644 | 0.0802 | 0.0674 | 0.674 | 0.818 | 0.634 | 0.625 | 0.341
6 | CAL-12T | 0.513 | 0.504 | 0.566 | 0.341 | 0.48 | 0.585 | 0.507 | 0.445 | 0.416 | 0.172 | 1.1 | 1.15 | 1.17 | 1.16 | 1.11 | 0.573 | 0.813 | 0.557 | 0.599 | 0.54
7 | COR-L23 | 0.571 | 0.48 | 0.571 | 0.429 | 0.492 | 0.316 | 0.289 | 0.272 | 0.206 | 0.169 | 1.28 | 0.953 | 1.03 | 1.03 | 0.733 | – | – | – | – | –
8 | COR-L 105 | 0.453 | 0.341 | 0.339 | – | 0.302 | 0.419 | 0.457 | 0.419 | 0.379 | 0.359 | 0.964 | 0.642 | 0.962 | 0.636 | 0.64 | – | – | – | – | –
9 | Calu-6 | – | – | – | – | – | – | – | – | – | – | 0.893 | 0.795 | 0.888 | 0.726 | 0.394 | – | – | – | – | –
10 | ChaGo-K-1 | 0.546 | 0.669 | 0.592 | 0.51 | 0.286 | 0.976 | 0.663 | 0.795 | 0.891 | 0.733 | 0.959 | 0.927 | 1.13 | 0.98 | 0.406 | 0.924 | 0.834 | 0.775 | 0.816 | 0.461
11 | EBC-1 | – | – | – | – | – | – | – | – | – | – | 0.355 | 0.397 | 0.564 | 0.351 | 0.293 | – | – | – | – | –
12 | EKVX | 0.556 | 0.433 | 0.519 | – | 0.459 | 0.451 | – | 0.469 | 0.269 | 0.394 | 0.956 | 0.818 | 0.913 | 0.793 | 0.836 | 0.718 | – | 0.643 | 0.755 | 0.546
13 | EMC-BAC-2 | 0.359 | 0.372 | 0.366 | 0.306 | 0.431 | 0.513 | 0.519 | 0.524 | 0.413 | 0.485 | 1.21 | 1.19 | 1.14 | 1.13 | 1.01 | 1.07 | 1.12 | 0.842 | 0.441 | 0.346
14 | EPLC-272H | 0.322 | 0.332 | 0.45 | 0.349 | 0.311 | 0.355 | 0.3 | 0.328 | 0.326 | 0.297 | 1.28 | 0.969 | 0.934 | 1.01 | 0.821 | 0.153 | 0.219 | 0.119 | 0.225 | 0.27
15 | H3255 | 0.298 | 0.366 | 0.568 | 0.321 | 0.289 | 0.275 | 0.292 | 0.285 | 0.293 | 0.279 | 0.536 | 0.507 | 0.473 | 0.396 | 0.242 | 0.961 | 0.945 | 0.866 | 0.879 | 0.543
16 | HARA | 0.275 | 0.3 | 0.338 | 0.269 | 0.252 | 0.249 | 0.298 | 0.282 | 0.27 | 0.176 | 1.13 | 1.08 | 1.16 | 1.08 | 1.08 | 0.287 | 0.392 | 0.282 | 0.294 | 0.307
17 | HCC-15 | 0.692 | 0.61 | 0.65 | 0.489 | 0.586 | 0.835 | 0.698 | 0.801 | 0.694 | 0.472 | 0.825 | 0.64 | 0.682 | 0.686 | 0.519 | 1.25 | 1.36 | 0.937 | 1.18 | 0.188
18 | HCC-44 | – | – | – | – | – | 0.987 | 0.902 | 0.995 | 0.995 | 1.03 | 0.973 | 0.983 | 1.04 | 0.927 | 0.915 | 0.949 | 1.08 | 1.09 | 1.14 | 0.75
19 | HCC-78 | 0.332 | 0.461 | 0.537 | 0.413 | 0.291 | 0.464 | 0.455 | 0.492 | 0.48 | 0.387 | 0.973 | 0.653 | 0.726 | 0.652 | 0.582 | 0.555 | 0.662 | 0.517 | 0.516 | 0.333
